# Patent US8871680B2, “Herbicidal compositions comprising 4-amino-3-chloro-5-fluoro-6-(4-chloro-2-fluoro-3-methoxyphenyl) pyridine-2-carboxylic acid or a derivative thereof and a di-methoxy-pyrimidine and derivatives thereof” (Dow AgroSciences LLC, priority 2012, dated 2014)
# Key:
# ECHCG = assay: Postemergence foliar-applied weed control, direct seeded rice (greenhouse); type: in vivo, Echinochloa crusgalli (L.) Beauv.; conditions: 70 gai/ha
# Source text: (§1) Seeds or nutlets of the desired test plant species were planted in a soil matrix prepared by mixing a loam or sandy loam soil (e.g., 28.6 percent silt, 18.8 percent clay, and 52.6 percent sand, with a pH of about 5.8 and an organic matter content of about 1.8 percent) and calcareous grit in an 80 to 20 ratio. The soil matrix was contained in plastic pots with a volume of 1 quart and a surface area of 83.6 square centimeters (cm^2). When required to ensure good germination and healthy plants, a fungicide treatment and/or other chemical or physical treatment was applied. The plants were grown for 8-22 days in a greenhouse with an approximate 14 hr photoperiod which was maintained at about 29° C. during the day and 26° C. during the night. Nutrients (Peters Excel® 15-5-15 5-Ca 2-Mg and iron chelate) were applied in the irrigation solution as needed and water was added on a regular basis. Supplemental lighting was provided with overhead metal halide 1000-Watt lamps as necessary. The plants were employed for testing when they reached the first through fourth true leaf stage. […]
# (§2) Treatment requirements were calculated based upon the rates being tested, the concentration of active ingredient or acid equivalent in the formulation, and a 12 mL application volume at a rate of 187 L/ha.
# (§3) For treatments comprised of formulated compounds, measured amounts of compounds were placed individually in 25 mL glass vials and diluted in a volume of 1.25% (v/v) Agri-Dex® crop oil concentrated to obtain 12× stock solutions. […]
# (§4) For treatments comprised of formulated and technical compounds, weighed amounts of the technical materials were placed individually in 25 mL glass vials and dissolved in a volume of 97:3 v/v acetone/DMSO to obtain 12× stock solutions, and measured amounts of the formulated compounds were placed individually in 25 mL glass vials and diluted in a volume of 1.5% (v/v) crop oil concentrate or water to obtain 12× stock solutions. […]
# FIMMI = assay: In-water applied weed control, transplanted paddy rice (greenhouse); type: in vivo, Fimbristylis miliacea (L.) Vahl
# Description: (§5) Weed seeds or nutlets of the desired test plant species were planted in puddled soil (mud) prepared by mixing a shredded, non-sterilized mineral soil (50.5 percent silt, 25.5 percent clay, and 24 percent sand, with a pH of about 7.6 and an organic matter content of about 2.9 percent) and water at a 1:1 volumetric ratio. The prepared mud was dispensed in 365 mL aliquots into 16-ounce (oz.) non-perforated plastic pots with a surface area of 86.59 square centimeters (cm^2) leaving a headspace of 3 centimeters (cm) in each pot. Mud was allowed to dry overnight prior to planting or transplanting. Rice seeds were planted in Sun Gro MetroMix® 306 planting mixture, which typically has a pH of 6.0 to 6.8 and an organic matter content of about 30 percent, in plastic plug trays. Seedlings at the second or third leaf stage of growth were transplanted into 860 mL of mud contained in 32-oz. non-perforated plastic pots with a surface area of 86.59 cm^2 4 days prior to herbicide application. The paddy was created by filling the headspace of the pots with 2.5 to 3 cm of water. When required to ensure good germination and healthy plants, a fungicide treatment and/or other chemical or physical treatment was applied. The plants were grown for 4-22 days in a greenhouse with an approximate 14 hr photoperiod which was maintained at about 29′C during the day and 26° C. during the night. Nutrients were added as Osmocote® (19:6:12, N:P:K+minor nutrients) at 2 g per 16-oz. pot and 4 g per 32-oz. pot. Water was added on a regular basis to maintain the paddy flood, and supplemental lighting was provided with overhead metal halide 1000-Watt lamps as necessary. The plants were employed for testing when they reached the first through fourth true leaf stage.
# (§6) Treatments consisted of the acid or esters of 4-amino-3-chloro-5-fluoro-6-(4-chloro-2-fluoro-3-methoxy-phenyl)pyridine-2-carboxylic acid (compound A) each formulated as an SC and various herbicidal components alone and in combination. Forms of compound A were applied on an acid equivalent basis.
# (§7) Other herbicidal components were applied on an active ingredient basis and included the dimethoxy-pyrimidine acid acetolactate synthase (ALS)-inhibiting herbicides bispyribac-sodium formulated as Regiment® 80 WP, pyriminobac-methyl formulated as Hie Clean®, and pyriftalid (technical grade material).
# (§8) Treatment requirements for each compound or herbicidal component were calculated based upon the rates being tested, the concentration of active ingredient or acid equivalent in the formulation, an application volume of 2 mL per component per pot, and an application area of 86.59 cm^2 per pot.
# (§9) For formulated compounds, a measured amount was placed in an individual 100 or 200 mL glass vial and was dissolved in a volume of 1.25% (v/v) Agri-Dex® crop oil concentrate to obtain application solutions.
# (§10) For technical grade compounds, a weighed amount was placed in an individual 100 to 200 mL glass vial and was dissolved in a volume of acetone to obtain concentrated stock solutions. […] The concentrated stock solutions obtained were diluted with an equivalent volume of an aqueous mixture containing 2.5% (v/v) crop oil concentrate so that the final application solutions contained 1.25% (v/v) crop oil concentrate.
# (§11) Applications were made by injecting with a pipetter appropriate amounts of the application solutions, individually and sequentially, into the aqueous layer of the paddy.
# (§12) Control plants were treated in the same manner with the solvent blank. Applications were made so that all treated plant material received the same concentrations of acetone and crop oil concentrate.
# (§13) The treated plants and control plants were placed in a greenhouse as described above and water was added as needed to maintain a paddy flood. […]
# CYPRO = assay: as above; type: in vivo, Cyperus rotundus L.
# Description: as §5, §6, §7, §8, §9, §10, §11, §12, §13
# BRAPP = assay: Postemergence foliar-applied weed control, direct seeded rice (greenhouse); type: in vivo, Brachiaria platyphylla (Griseb.) Nash
# Source text: as §1, §2, §3, §4
# LEFCH [1] = assay: as above; type: in vivo, Leptochloa chinensis (L.) Nees
# Source text: (§14) Seeds or nutlets of the desired test plant species were planted in a soil matrix prepared by mixing a loam or sandy loam soil (e.g., 28.6 percent silt, 18.8 percent clay, and 52.6 percent sand, with a pH of about 5.8 and an organic matter content of about 1.8 percent) and calcareous grit in an 80 to 20 ratio. The soil matrix was contained in plastic pots with a volume of 1 quart and a surface area of 83.6 square centimeters (cm^2). When required to ensure good germination and healthy plants, a fungicide treatment and/or other chemical or physical treatment was applied. The plants were grown for 8-22 days in a greenhouse with an approximate 14 hr photoperiod which was maintained at about 29° C. during the day and 26° C. during the night. Nutrients (Peters Excel® 15-5-15 5-Ca 2-Mg and iron chelate) were applied in the irrigation solution as needed and water was added on a regular basis. Supplemental lighting was provided with overhead metal halide 1000-Watt lamps as necessary. The plants were employed for testing when they reached the first through fourth true leaf stage.
# as §6, with “(Compound A),” for “(compound A)”, “SC (suspension concentrate),” for “SC”
# as §7, with “80WP, pyribenzoxim (technical grade material),” for “80 WP,”, “Hie-Clean® 1.2% GR dissolved in water,” for “Hie Clean®,”
# as §2
# (§15) For treatments comprised of formulated compounds, measured amounts of compounds were placed individually in 25 mL glass vials and diluted in a volume of 1.25% (v/v) Agri-Dex® crop oil concentrated to obtain 12× stock solutions. […] Application solutions were prepared by adding an appropriate amount of each stock solution (e.g., 1 mL) and diluted to the appropriate final concentrations with the addition of 10 mL of an aqueous mixture of 1.25% (v/v) crop oil concentrate so that the final spray solutions contained 1.25+/−0.005% (v/v) crop oil concentrate.
# (§16) For treatments comprised of technical compounds, weighed amounts can be placed individually in 25 mL glass vials and dissolved in a volume of 97:3 v/v acetone/DMSO to obtain 12× stock solutions. […] Application solutions can be prepared by adding an appropriate amount of each stock solution (e.g., 1 mL) and diluted to the appropriate final concentrations with the addition of 10 mL of an aqueous mixture of 1.5% (v/v) crop oil concentrate so that the final spray solutions contain 1.25% (v/v) crop oil concentrate. When technical materials are used, the concentrated stock solutions can be added to the spray solutions so that the final acetone and DMSO concentrations of the application solutions are 16.2% and 0.5%, respectively.
# as §4
# LEFCH [2] = assay: In-water applied weed control, transplanted paddy rice (greenhouse); type: in vivo, Leptochloa chinensis (L.) Nees; conditions: 45 gai/ha
# Description: as §5, §6, §7, §8, §9, §10, §11
# Control plants were treated in the same manner with the solvent blank. […]
# IPOHE = assay: Postemergence foliar-applied weed control, direct seeded rice (greenhouse); type: in vivo, Ipomoea hederacea Jacq.
# Source text: as §14
# as §6, with “(Compound A),” for “(compound A)”, “SC (suspension concentrate),” for “SC”
# as §7, with “80WP, pyribenzoxim (technical grade material),” for “80 WP,”, “Hie-Clean® 1.2% GR dissolved in water,” for “Hie Clean®,”
# as §2, §15, §16, §4
# SCPMA = assay: In-water applied weed control, transplanted paddy rice (greenhouse); type: in vivo, Bolboschoenus maritimus (L.) Palla; conditions: for Visual Weed Control (%)-20 DAA SCPMA Obs: 90 gai/ha
# Description: as §5, §6, §7, §8, §9, §10, §11, §12, §13
# ECHCO = assay: as above; type: in vivo, Echinochloa colona (L.) Link; conditions: 22.5 gai/ha
# Description: as §5, with “Water was added on a regular basis to maintain the paddy flood, and supplemental lighting was provided with overhead metal halide 1000-Watt lamps as necessary. The plants were employed for testing when they reached the first through fourth true leaf stage.” left out
# as §8
# For formulated compounds, a measured amount was placed in an individual 100 or 200 mL glass vial and was dissolved in a volume of 1.25% (v/v) Agri-Dex® crop oil concentrate to obtain application solutions. […]
# DIGSA = assay: Postemergence foliar-applied weed control, direct seeded rice (greenhouse); type: in vivo, Digitaria sanguinalis (L.) Scop.
# Source text: as §14
# as §6, with “(Compound A),” for “(compound A)”, “SC (suspension concentrate),” for “SC”
# as §7, with “80WP, pyribenzoxim (technical grade material),” for “80 WP,”, “Hie-Clean® 1.2% GR dissolved in water,” for “Hie Clean®,”
# as §2, §15
# as §16, with “When technical materials are used, the concentrated stock solutions can be added to the spray solutions so that the final acetone and DMSO concentrations of the application solutions are 16.2% and 0.5%, respectively.” left out
# as §4
structure (smiles),measurement,setting,value
"COc1cc(OC)nc(Oc2cccc(Oc3nc(OC)cc(OC)n3)c2C(=O)ON=C(c2ccccc2)c2ccccc2)n1 [Pyribenzoxim, diphenylmethanone O-[2,6-bis[(4,6-dimethoxy-2-pyrimidinyl)oxy]benzoyl]oxime, reference compound]",Visual Weed Control (%) - 20 DAA ECHCG Obs,ECHCG,85%
"COc1cc(OC)nc(Sc2cccc3c2C(=O)OC3C)n1 (centres unmarked) [Pyriftalid, 7-[(4,6-dimethoxy-2-pyrimidinyl)thio]-3-methyl-1 (3H)-isobenzofuranone, reference compound]",Visual Weed Control (%)-21 DAA FIMMI Obs,FIMMI; 45 gai/ha,50%
same,Visual Weed Control (%)-21 DAA FIMMI Obs,FIMMI; 90 gai/ha,30%
same,Visual Weed Control (%)-21 DAA CYPRO Obs,"CYPRO; 45 gai/ha, Table 12",0%
same,Visual Weed Control (%)-21 DAA CYPRO Obs,"CYPRO; 45 gai/ha, Table 13",0%
same,Visual Weed Control (%)-21 DAA CYPRO Obs,"CYPRO; 90 gai/ha, Table 12",0%
same,Visual Weed Control (%)-21 DAA CYPRO Obs,"CYPRO; 90 gai/ha, Table 13",0%
same,Visual Weed Control (%)-22 DAA BRAPP Obs,BRAPP; 45 gai/ha,0%
same,Visual Weed Control (%)-22 DAA BRAPP Obs,BRAPP; 90 gai/ha,0%
same,Visual Weed Control (%)-22 DAA LEFCH Obs,LEFCH [1]; 45 gai/ha,0%
same,Visual Weed Control (%)-22 DAA LEFCH Obs,LEFCH [1]; 90 gai/ha,0%
"CO/N=C(\C)c1cccc(Oc2nc(OC)cc(OC)n2)c1C(=O)OC [Pyriminobac-methyl, methyl 2-[(4,6-dimethoxy-2-pyrimidinyl)oxy]-6-[1-(methoxyimino)ethyl]benzoate, reference compound]",Visual Weed Control (%)-21 DAA FIMMI Obs,FIMMI; 22.5 gai/ha,0%
same,Visual Weed Control (%)-21 DAA FIMMI Obs,FIMMI; 45 gai/ha,0%
same,Visual Weed Control (%)-21 DAA CYPRO Obs,CYPRO; 22.5 gai/ha,0%
same,Visual Weed Control (%)-21 DAA LEFCH Obs,LEFCH [2],80%
same,Visual Weed Control (%)-24 DAA IPOHE Obs,IPOHE; 11.25 gai/ha,10%
same,Visual Weed Control (%)-24 DAA IPOHE Obs,"IPOHE; 11.25 gai/ha, Table 4",10%
same,Visual Weed Control (%)-24 DAA IPOHE Obs,IPOHE; 22.5 gai/ha,10%
same,Visual Weed Control (%)-24 DAA IPOHE Obs,"IPOHE; 22.5 gai/ha, Table 4",10%
same,Visual Weed Control (%)-21 DAA IPOHE Obs,IPOHE; 90 gai/ha,20%
same,Visual Weed Control (%)-24 DAA IPOHE Obs,"IPOHE; 90 gai/ha, second part of Table 3",20%
same,Visual Weed Control (%)-21 DAA SCPMA Obs,"SCPMA; 22.5 gai/ha, Table 10",0%
same,Visual Weed Control (%)-21 DAA SCPMA Obs,"SCPMA; 22.5 gai/ha, Table 11",0%
same,Visual Weed Control (%)-21 DAA SCPMA Obs,"SCPMA; 45 gai/ha, Table 10",0%
same,Visual Weed Control (%)-21 DAA SCPMA Obs,"SCPMA; 45 gai/ha, Table 11",0%
same,Visual Weed Control (%)-20 DAA SCPMA Obs,SCPMA; Table 10,43%
same,Visual Weed Control (%)-20 DAA SCPMA Obs,SCPMA; Table 11,43%
same,Visual Weed Control (%)-21 DAA ECHCO Obs,ECHCO,40%
same,Visual Weed Control (%)-24 DAA DIGSA Obs,DIGSA; 11.25 gai/ha,0%
same,Visual Weed Control (%)-24 DAA DIGSA Obs,DIGSA; 22.5 gai/ha,0%
same,Visual Weed Control (%)-24 DAA LEFCH Obs,LEFCH [1]; 11.25 gai/ha,0%
same,Visual Weed Control (%)-24 DAA LEFCH Obs,LEFCH [1]; 22.5 gai/ha,0%
